Values quoted from earlier work as cited in patent publication US20090311237A1, “Combination therapy using a soluble hyaluronidase and a bisphosphonate” (priority 2008, published 2009).

Conditions: rats; single IV administration of 1.6 mg/kg; cited from earlier work

In the case of O=P(O)(O)C(O)(Cn1ccnc1)P(=O)(O)O [ZA, 1-hydroxy-2-(1H-imidazol-1-yl)ethylidene-1,1-bisphosphonic acid], the injection site finding is listed as “local irritation at the injection site”.
